# Data reported in ChEMBL document CHEMBL1142372, “Design, synthesis, and structure-activity relationship studies of 4-quinolinyl- and 9-acrydinylhydrazones as potent antimalarial agents” (J Med Chem, 2008).
# pEC50, pIC50: −log10 of the molar value. Active and inactive are the calls of the source. The calls are words filed in the database; no cut-off is given here.
# Legend:
# Plasmodium falciparum [1] = test: Antiplasmodial activity against chloroquine-resistant Plasmodium falciparum W2 by [3H]hypoxanthine incorporation; type: functional, organism-based
# Plasmodium falciparum [2] = test: Antiplasmodial activity against chloroquine-resistant Plasmodium falciparum K1 by [3H]hypoxanthine incorporation; type: functional, organism-based
# Plasmodium falciparum [3] = test: Antiplasmodial activity against chloroquine-sensitive Plasmodium falciparum D10 by [3H]hypoxanthine incorporation; type: functional, organism-based
# Plasmodium falciparum [4] = test: Antiplasmodial activity against chloroquine-sensitive Plasmodium falciparum 3D7 by [3H]hypoxanthine incorporation; type: functional, organism-based
# [5] = target: T1, Histidine-rich protein PFHRP-II (Plasmodium falciparum) (UniProt P05227); test: Inhibition of beta-hematin formation by BHIA; type: functional
# T1 sequence (whole entry): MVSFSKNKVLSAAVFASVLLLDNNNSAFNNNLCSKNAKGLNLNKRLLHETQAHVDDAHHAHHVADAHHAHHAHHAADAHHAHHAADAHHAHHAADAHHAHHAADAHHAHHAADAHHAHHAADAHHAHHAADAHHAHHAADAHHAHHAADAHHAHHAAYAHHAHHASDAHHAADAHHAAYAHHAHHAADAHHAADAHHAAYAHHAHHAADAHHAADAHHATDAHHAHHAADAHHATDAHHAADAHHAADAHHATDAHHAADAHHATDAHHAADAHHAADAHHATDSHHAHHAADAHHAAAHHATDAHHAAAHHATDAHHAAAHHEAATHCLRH
# KB = test: Cytotoxicity against human KB cells; type: functional; conditions: read-out: ED50 (the source's name)
# Plasmodium berghei = test: Antimalarial activity against Plasmodium berghei ANKA infected BALB/c mice (Mus musculus) as reduced parasitaemia at 30 mg/kg intraperitoneal dose after 4 days; type: functional; design: scale not given: the % may be the effect or the level left
# Mus musculus = test: Survival of Plasmodium Berghei ANKA infected BALB/c mice (Mus musculus) at 30 mg/kg, intraperitoneally; type: functional, organism-based; design: dose 30 mg/kg
Structure (SMILES),pIC50 (Plasmodium falciparum [1]),pIC50 (Plasmodium falciparum [2]),pIC50 (Plasmodium falciparum [3]),pIC50 (Plasmodium falciparum [4]),Activity [5],pEC50 (KB),Activity (Plasmodium berghei),Activity (Mus musculus)
Clc1ccc2c(N/N=C/c3ccc4c(c3)OCO4)ccnc2c1,6.69,7.51,6.74,6.40,–,–,–,–
Clc1ccc2c(N/N=C/c3cccnc3)ccnc2c1,6.09,–,6.22,–,–,–,–,–
COc1ccc(/C=N/Nc2cc(C)nc3ccc(OC)cc23)cc1,6.82,7.21,6.99,7.51,–,–,–,–
COc1ccc2nc(C)cc(N/N=C/c3ccc4c(c3)OCO4)c2c1,6.74,6.83,6.88,6.29,–,–,–,–
Cc1cc(N/N=C/c2ccc3c(c2)OCO3)c2ccc(Cl)cc2n1,6.55,–,6.91,–,–,–,–,–
Cc1cccc(/C=N/Nc2ccnc3cc(Cl)ccc23)n1,6.12,–,< 5.52,–,–,–,–,–
FC(F)(F)c1ccc(-c2n[nH]cc2/C=N/Nc2ccnc3cc(Cl)ccc23)cc1,6.59,7.40,6.73,8.30,Dose-dependent effect,5.92,–,–
Clc1ccc2c(N/N=C/c3cnc[nH]3)ccnc2c1,6.85,6.20,6.34,6.82,–,4.54,–,–
Cc1cccc(/C=N/Nc2cc(C)nc3cc(Cl)ccc23)n1,5.88,–,5.93,–,–,–,–,–
Cn1ccnc1/C=N/Nc1ccnc2cc(Cl)ccc12,7.06,6.57,6.71,7.21,–,4.77,–,–
COc1ccc(/C=N/Nc2ccnc3ccc(OC)cc23)cc1,–,–,–,7.19,–,–,38%,–
Clc1ccc2c(N/N=C/c3ccncc3)ccnc2c1,6.20,–,6.24,–,–,–,–,–
Clc1ccc2c(N/N=C/c3ccc[nH]3)ccnc2c1,6.59,7.27,6.68,7.59,–,5.32,–,–
Clc1ccc2c(N/N=C/c3cccs3)ccnc2c1,6.07,6.24,6.30,6.78,–,4.98,–,–
COc1cc2ccccc2cc1/C=N/Nc1ccnc2cc(Cl)ccc12,6.77,7.20,6.84,7.50,–,–,–,–
COc1ccc2nc3cc(Cl)ccc3c(N/N=C/c3ncc[nH]3)c2c1,–,–,–,–,–,5.29,40%,Active
Cn1cncc1/C=N/Nc1ccnc2cc(Cl)ccc12,6.60,6.41,6.76,7.31,–,4.13,–,–
COc1ccc(/C=N/Nc2c3c(nc4cc(Cl)ccc24)CCCC3)cc1,5.88,5.58,6.12,6.03,–,–,–,–
Cc1ccc(S(=O)(=O)NNc2ccnc3cc(Cl)ccc23)cc1,5.30,5.07,5.23,5.52,–,–,–,–
CCN(CC)c1ccc(/C=N/Nc2c3c(nc4ccccc24)CCCC3)cc1,5.83,–,6.01,5.97,–,–,–,–
C(=N\Nc1c2c(nc3ccccc13)CCCC2)/c1ccc2c(c1)OCO2,6.03,–,6.21,–,–,–,–,–
COc1cccc(/C=N/Nc2cc(C)nc3cc4c(cc23)OCO4)c1,6.64,–,6.71,5.30,–,–,–,–
Oc1cc(/C=N/Nc2ccnc3cc(Cl)ccc23)ccc1CN1CCCC1,7.72,7.40,7.67,9.05,–,3.82,71%,Active
COc1ccc2nc3cc(Cl)ccc3c(N/N=C/c3ccc(CN4CCCC4)cc3)c2c1,–,–,–,–,–,–,19%,Active
